{"source": "patent US20240384268A1", "about": "“Oligonucleotides” (Hudson Institute of Medical Research, priority 2021, published 2024)", "molecular_target": "T1, human TLR9 (Homo sapiens, UniProt Q9NR96)", "T1 construct": "HA; host or cells: 293XL-hTLR9-HA (HEK293)", "T1 sequence (Q9NR96 26-1032)": "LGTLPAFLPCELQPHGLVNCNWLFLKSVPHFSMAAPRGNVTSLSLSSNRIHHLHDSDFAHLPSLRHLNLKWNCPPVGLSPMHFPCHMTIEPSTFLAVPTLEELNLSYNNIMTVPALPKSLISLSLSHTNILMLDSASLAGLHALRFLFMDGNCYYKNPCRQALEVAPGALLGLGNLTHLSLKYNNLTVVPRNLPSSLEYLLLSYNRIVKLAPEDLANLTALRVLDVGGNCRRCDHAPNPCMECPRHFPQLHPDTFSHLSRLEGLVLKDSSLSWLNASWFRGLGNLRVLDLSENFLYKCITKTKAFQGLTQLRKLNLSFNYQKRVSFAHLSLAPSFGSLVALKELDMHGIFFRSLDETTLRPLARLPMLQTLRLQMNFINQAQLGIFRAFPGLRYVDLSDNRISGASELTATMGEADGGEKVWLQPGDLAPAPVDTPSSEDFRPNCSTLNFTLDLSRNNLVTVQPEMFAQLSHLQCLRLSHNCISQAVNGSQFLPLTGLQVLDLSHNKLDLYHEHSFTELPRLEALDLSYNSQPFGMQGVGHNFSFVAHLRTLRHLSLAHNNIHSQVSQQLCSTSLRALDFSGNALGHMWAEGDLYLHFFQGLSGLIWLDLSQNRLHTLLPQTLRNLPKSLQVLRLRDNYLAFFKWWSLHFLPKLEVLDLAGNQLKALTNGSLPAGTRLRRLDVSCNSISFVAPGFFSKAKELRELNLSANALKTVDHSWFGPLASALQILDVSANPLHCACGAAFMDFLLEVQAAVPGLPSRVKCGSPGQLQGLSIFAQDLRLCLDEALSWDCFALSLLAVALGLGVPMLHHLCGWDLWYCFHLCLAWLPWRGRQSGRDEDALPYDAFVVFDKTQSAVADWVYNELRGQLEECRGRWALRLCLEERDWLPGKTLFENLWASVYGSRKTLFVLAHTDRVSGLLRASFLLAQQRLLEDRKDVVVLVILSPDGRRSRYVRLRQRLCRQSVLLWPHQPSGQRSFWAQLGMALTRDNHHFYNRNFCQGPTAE", "assay": "HEK-TLR9 NF-κB-luciferase reporter, ODN2006 stimulation", "format": "cell-based", "settings": "HEK-TLR9; for TLR9-500 nM: averaged NF-κB-Luciferase relative to ODN2006: 500 nM ASO 45 min, then 200 nM ODN2006 overnight, percentage of ODN2006 only; for inhibition of TLR9 sensing of ODN2006 (in words): 500 nM 2′OMe or PS oligos, 200 nM ODN2006", "note": "In the oligonucleotide strings, read from the 5' end, every base follows the letter of its sugar. An asterisk marks phosphorothioate; unmarked linkages are phosphodiester. Other units and linkages are bracketed, terminal groups are in braces. A string of capitals states the bases alone. d = 2'-deoxy (DNA); m = 2'-O-methyl"}
{"substance": "mA*mG*mC*mA*mG*T*C*T*C*C*A*T*G*T*C*mC*mC*mA*mG*mG (AGCAGTCTCCATGTCCCAGG; antisense; sugars from the 5' end m5 d10 m5, all phosphorothioate, methylation of C not given here) [[CDKN2B-AS1]2235]", "values": [{"measurement": "TLR9-500 nM: averaged NF-κB-Luciferase relative to ODN2006", "result": 73.18, "unit": "%"}]}
{"substance": "mA*mG*mU*mC*mU*C*C*A*T*G*T*C*C*C*A*mG*mG*mC*mC*mU (mA*mG*mU*mC*mU*dC*dC*dA*dT*dG*dT*dC*dC*dC*dA*mG*mG*mC*mC*mU; antisense) [[CDKN2B-AS1]2232]", "values": [{"measurement": "TLR9-500 nM: averaged NF-κB-Luciferase relative to ODN2006", "result": 122.20, "unit": "%"}]}
{"substance": "mA*mG*mU*mG*mG*C*A*C*A*T*A*C*C*A*C*mA*mC*mC*mC*mU (AGUGGCACATACCACACCCU; antisense; sugars from the 5' end m5 d10 m5, all phosphorothioate, methylation of C not given here) [[CDKN2B-AS1]495]", "values": [{"measurement": "TLR9-500 nM: averaged NF-κB-Luciferase relative to ODN2006", "result": 86.07, "unit": "%"}]}
{"substance": "mA*mU*mU*mU*mC*C*A*C*A*T*G*C*C*C*A*mG*mU*mG*mU*mU (AUUUCCACATGCCCAGUGUU; antisense; sugars from the 5' end m5 d10 m5, all phosphorothioate, methylation of C not given here) [[CDKN2B-AS1]626]", "values": [{"measurement": "TLR9-500 nM: averaged NF-κB-Luciferase relative to ODN2006", "result": 63.65, "unit": "%"}]}
{"substance": "mC*mA*mG*mU*mC*T*C*C*A*T*G*T*C*C*C*mA*mG*mG*mC*mC (mC*mA*mG*mU*mC*dT*dC*dC*dA*dT*dG*dT*dC*dC*dC*mA*mG*mG*mC*mC; antisense) [[CDKN2B-AS1]2233]", "values": [{"measurement": "TLR9-500 nM: averaged NF-κB-Luciferase relative to ODN2006", "result": 55.13, "unit": "%"}]}
{"substance": "mC*mA*mG*mU*mG*T*T*T*T*T*A*A*T*T*T*mU*mG*mU*mA*mG (mC*mA*mG*mU*mG*dT*dT*dT*dT*dT*dA*dA*dT*dT*dT*mU*mG*mU*mA*mG; antisense) [[CDKN2B-AS1]613]", "values": [{"measurement": "TLR9-500 nM: averaged NF-κB-Luciferase relative to ODN2006", "result": 92.59, "unit": "%"}]}
{"substance": "mC*mU*mU*mG*mU*G*A*A*A*A*G*A*T*T*A*mU*mC*mU*mU*mC (mC*mU*mU*mG*mU*dG*dA*dA*dA*dA*dG*dA*dT*dT*dA*mU*mC*mU*mU*mC) [[CDKN2B-AS1]2139]", "values": [{"measurement": "inhibition of TLR9 sensing of ODN2006 (in words)", "result": "strongly inhibited TLR9"}, {"measurement": "inhibition of TLR9 sensing of ODN2006 (in words)", "setting": "listed as ASO2139", "result": "significantly increased TLR9 inhibition"}, {"measurement": "TLR9-500 nM: averaged NF-κB-Luciferase relative to ODN2006", "result": 34.91, "unit": "%"}]}
{"substance": "mG*mC*mA*mG*mU*C*T*C*C*A*T*G*T*C*C*mC*mA*mG*mG*mC (GCAGUCTCCATGTCCCAGGC; antisense; sugars from the 5' end m5 d10 m5, all phosphorothioate, methylation of C not given here) [[CDKN2B-AS1]2234]", "values": [{"measurement": "inhibition of TLR9 sensing of ODN2006 (in words)", "result": "did not inhibit TLR9"}, {"measurement": "TLR9-500 nM: averaged NF-κB-Luciferase relative to ODN2006", "result": 90.04, "unit": "%"}]}
{"substance": "mG*mU*mC*mU*mC*C*A*T*G*T*C*C*C*A*G*mG*mC*mC*mU*mC (mG*mU*mC*mU*mC*dC*dA*dT*dG*dT*dC*dC*dC*dA*dG*mG*mC*mC*mU*mC) [[CDKN2B;AS1]2231]", "values": [{"measurement": "TLR9-500 nM: averaged NF-κB-Luciferase relative to ODN2006", "result": 77.80, "unit": "%"}]}
{"substance": "mG*mU*mG*mU*mC*C*T*T*C*A*T*G*C*T*T*mU*mG*mG*mA*mU (GUGUCCTTCATGCTTUGGAU; antisense; sugars from the 5' end m5 d10 m5, all phosphorothioate, methylation of C not given here) [[CDKN2B-AS1]1415]", "values": [{"measurement": "TLR9-500 nM: averaged NF-κB-Luciferase relative to ODN2006", "result": 98.99, "unit": "%"}]}
{"substance": "mG*mU*mG*mU*mU*T*T*T*A*A*T*T*T*T*G*mU*mA*mG*mA*mG (mG*mU*mG*mU*mU*dT*dT*dT*dA*dA*dT*dT*dT*dT*dG*mU*mA*mG*mA*mG) [[CDKN2B-AS1]611]", "values": [{"measurement": "TLR9-500 nM: averaged NF-κB-Luciferase relative to ODN2006", "result": 98.50, "unit": "%"}]}
{"substance": "mU*mA*mU*mU*mU*C*C*A*C*A*T*G*C*C*C*mA*mG*mU*mG*mU (mU*mA*mU*mU*mU*dC*dC*dA*dC*dA*dT*dG*dC*dC*dC*mA*mG*mU*mG*mU; antisense) [[CDKN2B-AS1]627]", "values": [{"measurement": "TLR9-500 nM: averaged NF-κB-Luciferase relative to ODN2006", "result": 71.20, "unit": "%"}]}
